US20040102361A1, “Pharmaceutical composition for the treatment of pulmonary arterial hypertension” (priority 2002, published 2004)
Structures can show the parent of a compound that is named as a salt.

How the values were obtained:
[1] = test system: patients with severe pulmonary arterial hypertension; assay: Clinical trial AC-052-355: hemodynamic efficacy, change from baseline to week 16; format: in vivo; settings: change from baseline at week 16
Description: (§1) This was a double-blind, randomized, placebo-controlled study to assess the effects of bosentan on hemodynamics, safety and tolerability in patients with severe pulmonary arterial hypertension when combined with the initiation of epoprostenol therapy.
(§2) Study design: The duration of the study was 16 weeks, 2:1 bosentan:placebo randomization. All patients received the starting epoprostenol dose of 2 ng/kg/min for 2 days, then they were randomized to receive either bosentan or placebo. Every 2 weeks thereafter, epoprostenol was increased by 2 ng/kg/min up to the target dose of 14±2 ng/kg/min by week 16. All patients received epoprostenol together with either bosentan or placebo for 16 weeks. Hemodynamic assessments were performed at baseline (prior to start of therapy) and again after 16 weeks of therapy. Safety monitoring was performed throughout the study duration.
Primary endpoint: Percent change from baseline in total pulmonary resistance (TPR) to week 16. The sample size was estimated for an expected mean difference in TPR of 28%.
(§3) Secondary endpoints: Changes from baseline to week 16 in CI (Cardiac Index), PVR (Pulmonary Vascular Resistance), […] (mean pulmonary arterial pressure), and mRAP (mean right atrial pressure); changes from baseline to week 16 in walk distance (6-min walk test), dyspnea fatigue rating, WHO functional class; and safety and tolerability.
(§4) Thirty-three patients entered the study: 11 patients received epoprostenol alone, while 22 patients received bosentan with epoprostenol.
In Table 1 the results are expressed as changes from baseline at week 16. Mean±SD (standard deviation) and median change (in brackets).

[2] = test system: patients with severe pulmonary arterial hypertension; assay: Clinical trial AC-052-355: vital signs (systolic blood pressure, heart rate), change from baseline to week 16; settings: human, in vivo
Description: as §1, §2, §3, §4

[3] = test system: patients with severe pulmonary arterial hypertension; assay: Clinical trial AC-052-355: treatment emergent adverse events; format: in vivo; settings: 16 weeks
Description: as §1, §2, §3, §4

CCCCC[C@H](O)/C=C/[C@@H]1[C@H]2C/C(=C/CCCC(=O)O)O[C@H]2C[C@H]1O [Epoprostenol alone, (5Z, 9α, 111α, 13E, 15)-6,9-epoxy-11,15-dihydroxyprosta-5,13-dien-1-oic acid, sodium salt]
CI, % mean change ([1]; cardiac index, mean (SD in the next cell)): 37.9%
CI, absolute change ([1]; mean (SD in the next cell)): 0.57 L/min/m^2
TPR, absolute change ([1]; mean (SD in the next cell)): −386 dyn*sec/cm^5
mPAP, absolute change ([1]; mean (SD in the next cell)): −1.6 mmHg
CI, % median change ([1]; median (in brackets)): (30.0%)
TPR, % median change ([1]; median (in brackets)): (−14.3%)
mRAP, absolute change ([1]; mean right atrial pressure, mean (SD in the next cell)): 0.3 mmHg
TPR, % mean change ([1]; total pulmonary resistance, mean (SD in the next cell)): −22.6%
Heart Rate (bpm), median change from baseline to week 16 [2]: 7.0 bpm
Systolic blood pressure (mmHg), change from baseline to week 16 [2]: −9.8 ± 10.9%
FLUSHING, % ([3]; human, in vivo): 45.5%
FLUSHING, No. ([3]; human, in vivo): 5
HYPOTENSION, % ([3]; human, in vivo): 18.2%
HYPOTENSION, No. ([3]; human, in vivo): 2
PAIN IN JAW, % ([3]; human, in vivo): 90.9%
PAIN IN JAW, No. ([3]; human, in vivo): 10
HEADACHE, No. ([3]; number of patients with the adverse event, 11 patients epoprostenol alone, 22 bosentan with epoprostenol): 4
HEADACHE, % ([3]; percent of patients with the adverse event): 36.4%
